Like-named read-outs stand apart in the source and are kept apart here.

As usually defined, the Emax is the size of the effect at its maximum, as opposed to the concentration needed. As a reminder, the EC50 is the concentration giving half of the maximal effect. Low values mean a more potent agent, high ones a less potent agent. One may read the AUC as the area under the concentration-time curve, a measure of exposure. Read a low AUC as less exposure. Broadly, the Cmax is the highest concentration seen after dosing. The MRT is the average time that molecules of a dose stay in the body. As a reminder, the Tmax is the time at which the peak concentration occurs. For orientation: clearance means the volume of plasma or blood freed of the substance per unit of time. The low end stands for a low capacity for elimination, the high end for a high capacity for elimination. As usually defined, the half-life is how long it takes for the measured level to halve. A low value points to fast loss. The bioavailability is the share of a dose that reaches the circulation, judged against a reference dose that is usually intravenous. High values mean good availability, low ones poor availability.

Data set [1] in a line: Brain exposure in C57Bl6 mice. The data set is classed as in vivo. The following applies: C57Bl6, mouse, ip, 10 mg/kg.
The target in data set [2] is human wild-type S1P1 (WT) (Homo sapiens, UniProt P21453). The format is cell-based.
Data set [3] is described as follows: Serum drug concentration in the lymphopenia studies. The data set is classed as in vivo, C57BL6 mice. The following applies: mice; for serum drug concentration (± SD): W146 20 mg/kg + CYM-5442 2 mg/kg group, 5 h.
Data set [4] can be described thus: Pharmacokinetics in Sprague Dawley rats. The data set is classed as in vivo. The following applies: rat.
Data set [5] can be described thus: Water solubility. The data set is classed as physicochemical.
Data set [6] has as its target T1, human S1P1-GFP (Homo sapiens, UniProt P21453). The data set can be described thus: S1P1-GFP ubiquitination in HEK293 cells. The data set is classed as cell-based.
Data set [7] addresses S1P1 R^120A mutant (Homo sapiens, UniProt P21453, R120A). The format is cell-based. The following applies: for Emax: CHO-K1; for EC50: without W146.
Data set [8] addresses T1, human S1P1-GFP. The data set is described as follows: S1P1-GFP internalization in HEK293 cells. The data set is classed as cell-based.
Data set [9] relates to blood lymphocytes (WBC, B220+, CD4+, CD8+). The data set is described as follows: CYM-5442 mediated lymphopenia in mice. The format is in vivo, C57BL6 mice. The following applies: for B220^+ cells, percent relative to animals receiving both drug vehicles / CD4^+ cells, percent relative to animals receiving both drug vehicles / CD8^+ cells, percent relative to animals receiving both drug vehicles: W146 20 mg/kg i.p. 30 min before, CYM-5442 2 mg/kg.

The target in data set [10] is T1, human S1P1-GFP. The data set can be described thus: S1P1-GFP phosphorylation, P^32-orthophosphate labeled HEK293 cells. The format is cell-based.
For data set [11], the target named is human S1P1 (Homo sapiens, UniProt P21453). The format is cell-based.
Data set [12] addresses human S1P5 (Homo sapiens, UniProt Q9H228). The data set is described as follows: S1P5 agonist format, TANGO S1P5-bla U2OS cells. The data set is classed as cell-based.
Data set [13] addresses S1P1 E^121A mutant (Homo sapiens, UniProt P21453, E121A). The format is cell-based. The following applies: for EC50: without W146.
[14] abbreviates: EC50, activation of p42/p44 MAPK phosphorylation, WT, without W146.
[15] abbreviates: Sprague Dawley, plasma, iv, 1 mg/kg.
[16] abbreviates: Sprague Dawley, plasma, po, 2 mg/kg.

human wild-type S1P1 (WT), sequence (P21453 whole entry): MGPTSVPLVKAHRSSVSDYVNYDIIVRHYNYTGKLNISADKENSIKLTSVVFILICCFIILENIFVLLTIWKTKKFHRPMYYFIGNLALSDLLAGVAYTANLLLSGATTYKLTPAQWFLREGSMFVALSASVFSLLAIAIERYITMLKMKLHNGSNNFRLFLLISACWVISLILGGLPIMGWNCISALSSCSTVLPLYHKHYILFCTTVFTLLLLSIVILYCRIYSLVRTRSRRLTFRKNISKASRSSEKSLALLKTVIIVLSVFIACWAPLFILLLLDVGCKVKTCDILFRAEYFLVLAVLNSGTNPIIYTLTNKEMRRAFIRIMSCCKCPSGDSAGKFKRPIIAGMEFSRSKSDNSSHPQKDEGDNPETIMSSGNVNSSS
T1 sequence (P21453 whole entry): as above
human S1P1, sequence (P21453 whole entry): as above
S1P1 R^120A mutant, sequence (P21453 whole entry R120A): as the sequence (P21453 whole entry) above, with R120A counted along it
S1P1 E^121A mutant, sequence (P21453 whole entry E121A): as the sequence (P21453 whole entry) above, with E121A counted along it
human S1P5, sequence (Q9H228 whole entry): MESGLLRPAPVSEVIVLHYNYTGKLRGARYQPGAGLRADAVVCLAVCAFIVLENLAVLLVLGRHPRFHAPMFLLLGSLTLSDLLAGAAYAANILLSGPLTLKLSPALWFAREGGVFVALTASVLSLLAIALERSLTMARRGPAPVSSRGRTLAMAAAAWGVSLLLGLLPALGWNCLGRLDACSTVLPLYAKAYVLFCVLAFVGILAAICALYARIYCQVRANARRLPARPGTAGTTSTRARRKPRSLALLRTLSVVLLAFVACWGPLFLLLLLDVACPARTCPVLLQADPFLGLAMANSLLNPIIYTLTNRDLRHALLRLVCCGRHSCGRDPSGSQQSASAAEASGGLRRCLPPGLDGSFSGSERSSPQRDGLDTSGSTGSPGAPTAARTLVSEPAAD

In the case of `CCOc1ccc(-c2nc(-c3cccc4c3CCC4NCCO)no2)cc1OCC` (centres unmarked) [CYM-5442, 2-(4-(5-(3,4-diethoxyphenyl)-1,2,4-oxadiazol-3-yl)-2,3-dihydro-1H-inden-1-ylamino) ethanol], the concentration at 2 h in [1] (brain) is 13700 ± 2900 nM; in data set [1] (plasma), 1080 ± 300 nM. Moreover, the Emax in data set [2] (CHO-K1) was 70%; in data set [7], 100%; in [11] (read-out: Agonist format (Emax)) it was 100%; in data set [12] (U2OS, read-out: Agonist format (Emax)), 20%; in data set [13] (CHO-K1), 100%. The EC50 in data set [2] (setting [14]) is 46 nM; in data set [7] (EC50, p42/p44 MAPK activity, R^120A), 67 nM; in data set [7] (LogEC50, R^120A, log EC50 printed negative), 63.1 nM; in [11], 1.35 nM; in [13] (LogEC50, E^121A, log EC50 printed negative), 126 nM; in data set [13] (mean EC50, activation of p42/p44 MAPK, E^121A) it was 134 nM. Moreover, the “serum drug concentration (± SD)” value in [3] came out at 190 ± 40 nM. For the same compound, in data set [3] (i.p.), the “serum CYM-5442 concentration required for induction and maintenance of lymphopenia” value is recorded as approximately 50 nM. Besides, the AUC in [4] (setting [15]) is 0.57 ± 0.1 µM·h; in data set [4] (setting [16]) it was 0.23 ± 0.053 µM·h. The Cmax worked out at 220 ± 18 nM in data set [4] (setting [15]) and 36 ± 7.2 nM in data set [4] (setting [16]). Also, the results for the MRT in [4] (setting [15]) and in data set [4] (setting [16]) were 3.54 ± 0.38 h and 6.35 ± 2.1 h, respectively. Besides, the Tmax was determined as 0.083 h in data set [4] (setting [15]) and 1.17 ± 0.76 h in data set [4] (setting [16]). In addition, the clearance in data set [4] (setting [15]) amounted to 72.9 ± 11.7 mL/min/kg. Moreover, the half-life is 0.833 h in data set [4] (Sprague Dawley, plasma, iv, 1 mg/kg, half-life (t1/2)); 3.05 ± 0.37 h in data set [4] (Sprague Dawley, plasma, iv, 1 mg/kg, t1/2, rat, 1 mg/kg i.v.); 3 h in [4] (Sprague Dawley, plasma, po, 2 mg/kg, half-life (t1/2), P.O.); 4 ± 1.45 h in data set [4] (Sprague Dawley, plasma, po, 2 mg/kg, t1/2, rat, 2 mg/kg PO). This compound also yielded a bioavailability in data set [4] (Sprague Dawley, plasma, oral, 2 mg/kg) of 20.5 ± 4.67%. In addition, the “AUC (% extrap,ob)” value in data set [4] (1 mg/kg i.v.) amounted to 11.35 ± 14.20%; in data set [4] (2 mg/kg PO) it was 27.80 ± 14.20%. Moreover, the “Cl” value in data set [4] (2 mg/kg PO) was determined as 360.1 ± 73.3 mL/min/kg. Further, the water solubility result in [5] was “moderately water-soluble”. The S1P1-GFP receptor ubiquitination result in data set [6] (1 h incubation) is given as “stimulated receptor ubiquitination (UB-S1P1-GFP) to AFD-R levels”. Moreover, in data set [7] (R^120A), the “rightward shift in EC50 by 10 μM W146” value was determined as 3 fold. Besides, the S1P1-GFP internalization result in data set [8] (500 nM) is reported as “stimulated the internalization of S1P1-GFP receptor”. In data set [9] (abstract), the “decrease of B-lymphocytes, of vehicle” value is recorded as 65%. Moreover, the “decrease of T-lymphocytes, of vehicle” value in data set [9] (abstract) turned out to be 85%. Further, the “reduction of CD4^+, CD8^+ and B220^+ cell counts, of vehicle” value in data set [9] (mice, 2 mg/kg, 5 h) is “approximately 50%”. The “decrease of B220^+ B-cells compared to vehicle” value in data set [9] (mice, 10 mg/kg i.p., 5 h) is listed as 63%. For the same compound, the “decrease of CD4^+ T-cell counts, of vehicle” value in data set [9] (mice, 10 mg/kg i.p., 5 h) was 83%. Also, the “decrease of CD8^+ T-cell counts, of vehicle” value in [9] (mice, 10 mg/kg i.p., 5 h) turned out to be 84%. Further, the “decrease of WBC counts vs. vehicle” value in data set [9] (mice, 10 mg/kg i.p., 5 h) was 64%. The “% CD4^+” value in data set [9] (mice, 10 mg/kg i.p., 5 h, vehicle 11.5±0.2) is 1.9±0.2 %. The “WBC (K/mm^3)” value in [9] (mice, 10 mg/kg i.p., 5 h, vehicle 11.9±0.2) turned out to be 4.3±0.4 K/mm^3. The “% CD8^+” value in [9] (mice, 10 mg/kg i.p., 5 h, vehicle 11.9±0.3) is 1.9±0.4 %. Moreover, the “% B220^+” value in data set [9] (mice, 10 mg/kg i.p., 5 h, vehicle 40.5±0.6) amounted to 14.7±0.5 %. Besides, in [9] (mice, 5 h), the “B220^+ cells, percent relative to animals receiving both drug vehicles” value is 46.0±18.1 %. Further, the “CD4^+ cells, percent relative to animals receiving both drug vehicles” value in data set [9] (mice, 5 h) came out at 53.5 ± 6.5 %. In data set [9] (mice, 5 h), the “CD8^+ cells, percent relative to animals receiving both drug vehicles” value stood at 47.4±7.5 %. Further, the S1P1 phosphorylation result in data set [10] (500 nM) is “stimulated S1P1 phosphorylation in a time-dependent manner”. For the same compound, the “agonist efficacy compared to SEW2871” value in [11] (CRE reporter, agonist format) was “full agonist compared to SEW2871”. Further, the “more potent than SEW2871 in vitro” value in data set [11] (depending on which agonist format was used) was 10-50 fold. Further, the “selectivity for S1P1 over S1P5” value in data set [12] was 10,000 fold. The “rightward shift in potency by W146 preincubation” value in data set [13] (E^121A) turned out to be 10 fold.

Take `CCCCCCc1cccc(NC(=O)[C@H](N)CCP(=O)(O)O)c1` [W146, (R)-3-Amino-(3-hexylphenylamino)-4-oxobutylphosphonic acid, reference compound]: the “inhibition of CYM-5442-mediated p42/p44 MAPK phosphorylation” value in data set [2] (WT cells, 10 μM W146 preincubation) was “complete inhibition”. The “serum drug concentration (± SD)” value in data set [3] is 1760 ± 310 nM. In data set [6] (pre-incubation 30 min), the “effect on CYM-5442-stimulated S1P1 ubiquitination” value was “nearly abolish”. In addition, in [8], the “effect of antagonist alone on internalization” value is reported as “did not have an effect on internalization”. Also, the “effect on internalization of S1P1-GFP by CYM-5442” value in data set [8] (10 μM preincubation) is “completely blocked”. The “reversal of CYM-5442 effects on B-220^+, CD4^+ and CD8^+ cell counts” value in [9] (W146 20 mg/kg 30 min before CYM-5442 2 mg/kg) is on record as “partially recover”. For the same compound, in data set [9] (mice, 5 h), the “B220^+ cells, percent relative to animals receiving both drug vehicles” value was 114.7±5.9%; the “CD4^+ cells, percent relative to animals receiving both drug vehicles” value is 108.1 ±17.4%; the “CD8^+ cells, percent relative to animals receiving both drug vehicles” value is 112.2±19.6%. Besides, the “effect of antagonist alone on S1P1 phosphorylation” value in [10] (10 μM) is on record as “no effect”. In addition, the “effect on CYM-5442-mediated S1P1 phosphorylation” value in [10] (10 μM, 30 min pre-incubation) is “completely abolished”.

Consider `N#CC(=C(/N)Sc1ccccc1N)/C(C#N)=C(/N)Sc1ccccc1N` [U0126], for which the “block of S1P and CYM-5442 stimulated P42/P44 MAPK phosphorylation” value in data set [2] (10 μM pre-incubation) is given as “completely blocked”.

For the compound `CCCCCCCCCCCCC/C=C/[C@@H](O)[C@@H](N)COP(=O)(O)O` [S1P, Sphingosine-1 phosphate], the EC50 in data set [2] (EC50, activation of p42/p44 MAPK phosphorylation, WT, 10 μM W146 prior to agonist) was 140 nM; in [2] (setting [14]) it was 2.3 nM; in [2] (LogEC50, WT, without W146, log EC50 printed negative, 5 min stimulation), 2.51 nM. In addition, in data set [2] (WT, agonist with W146 vs agonist alone), the “rightward shift in potency by 10 μM W146” value worked out at 60 fold. The compound also gave an Emax in data set [7] of 25%. In data set [7] (R^120A), the “p42/p44 MAPK activity in the mutant” value is given as “near loss of p42/p44 MAPK activity”. Moreover, in data set [13] (E^121A), the “p42/p44 MAPK activation in the mutant” value is listed as “did not lead to significant p42/p44 MAPK activation”.

Source of the values: article PMC2575047 (Molecular pharmacology, 2008).
